Data reported in patent US7179806B2, “Δ1-pyrrolines used as pesticides” (Bayer Cropscience AG, priority 2000, dated 2007).

experiment: log P determination by HPLC (reversed-phase C18, EEC Directive 79/831 Annex V.A8); assay type: physicochemical; details: reversed-phase C18 HPLC column, pH 2.3, pH 2.3, 0.1% aqueous phosphoric acid/acetonitrile gradient, 43° C
Excerpt: Mobile phases for determination in the acidic range: 0.1% aqueous phosphoric acid, acetonitrile; linear gradient from 10% acetonitrile to 90% acetonitrile.

SMILES	chromatographic logP
Fc1cccc(F)c1C1=NC(c2ccc(-c3cnc(N4CCN(CCc5ccccc5)CC4)nc3)cc2)CC1 (centres unmarked) [Example 168]	1.84
CCCc1cnc(-c2ccc(C3CCC(c4c(F)cccc4F)=N3)cc2)nc1 (centres unmarked) [Example 169]	2.96
COC(=O)C1CCN(c2ccc(-c3ccc(C4CCC(c5c(F)cccc5F)=N4)cc3)cn2)CC1 (centres unmarked) [Example 170]	1.61
Fc1ccccc1N1CCN(c2ccc(-c3ccc(C4CCC(c5c(F)cccc5F)=N4)cc3)cn2)CC1 (centres unmarked) [Example 171]	2.51
Fc1ccc(CN2CCN(c3ccc(-c4ccc(C5CCC(c6c(F)cccc6F)=N5)cc4)cn3)CC2)cc1 (centres unmarked) [Example 172]	1.64
Fc1cccc(F)c1C1=NC(c2ccc(-c3ccc(N4CCN(Cc5ccc(Cl)cc5)CC4)nc3)cc2)CC1 (centres unmarked) [Example 173]	1.83
COc1ccc(CN2CCN(c3ccc(-c4ccc(C5CCC(c6c(F)cccc6F)=N5)cc4)cn3)CC2)cc1 (centres unmarked) [Example 174]	1.59
CC(C)(C)C1CCN(c2ccc(-c3ccc(C4CCC(c5c(F)cccc5F)=N4)cc3)cn2)CC1 (centres unmarked) [Example 175]	2.89
CC(C)(C)c1ccc(CN2CCN(c3ccc(-c4ccc(C5CCC(c6c(F)cccc6F)=N5)cc4)cn3)CC2)cc1 (centres unmarked) [Example 176]	2.23
Cc1cnc(-c2ccc(C3CCC(c4c(F)cccc4F)=N3)cc2)nc1 (centres unmarked) [Example 177]	2.02
COCCN(CCC#N)c1ncc(-c2ccc(C3CCC(c4c(F)cccc4F)=N3)cc2)cn1 (centres unmarked) [Example 178]	2.45
Fc1cccc(F)c1C1=NC(c2ccc(-c3ccc(Br)nc3)cc2)CC1 (centres unmarked) [Example 179]	2.69
Fc1cccc(F)c1C1=NC(c2ccc(-c3ncc(Br)cn3)cc2)CC1 (centres unmarked) [Example 180]	3.08
CCc1cnc(-c2ccc(C3CCC(c4c(F)cccc4F)=N3)cc2)nc1 (centres unmarked) [Example 181]	2.46
CN(Cc1ccco1)c1ncc(-c2ccc(C3CCC(c4c(F)cccc4F)=N3)cc2)cn1 (centres unmarked) [Example 182]	3.1
CCN(Cc1ccco1)c1ncc(-c2ccc(C3CCC(c4c(F)cccc4F)=N3)cc2)cn1 (centres unmarked) [Example 183]	3.59
Fc1cccc(F)c1C1=NC(c2ccc(-c3cnc(NCc4ccco4)nc3)cc2)CC1 (centres unmarked) [Example 184]	2.31
CCC(C)N(Cc1ccco1)c1ncc(-c2ccc(C3CCC(c4c(F)cccc4F)=N3)cc2)cn1 (centres unmarked) [Example 185]	4.54
Cc1ccc(CN(C)c2ncc(-c3ccc(C4CCC(c5c(F)cccc5F)=N4)cc3)cn2)o1 (centres unmarked) [Example 186]	3.4
Fc1cccc(F)c1C1=NC(c2ccc(-c3cnc(N4CCC5(CC4)OCCO5)nc3)cc2)CC1 (centres unmarked) [Example 187]	2.51
Fc1cccc(F)c1C1=NC(c2ccc(-c3ncc(-c4ccc(Cl)cc4)cn3)cc2)CC1 (centres unmarked) [Example 188]	4.12
Fc1cccc(F)c1C1=NC(c2ccc(-c3ccc(N4CCN(Cc5ccccc5)CC4)nc3)cc2)CC1 (centres unmarked) [Example 189]	1.5
N#Cc1cccnc1N1CCN(c2ccc(-c3ccc(C4CCC(c5c(F)cccc5F)=N4)cc3)cn2)CC1 (centres unmarked) [Example 190]	3.09
Cc1ccc(N2CCN(c3ccc(-c4ccc(C5CCC(c6c(F)cccc6F)=N5)cc4)cn3)CC2)cc1C (centres unmarked) [Example 191]	2.58
CC(C)N1CCN(c2ccc(-c3ccc(C4CCC(c5c(F)cccc5F)=N4)cc3)cn2)CC1 (centres unmarked) [Example 192]	1.14
CCOCCN1CCN(c2ccc(-c3ccc(C4CCC(c5c(F)cccc5F)=N4)cc3)cn2)CC1 (centres unmarked) [Example 193]	1.26

SMILES	chromatographic logP
COCCCN1CCN(c2ccc(-c3ccc(C4CCC(c5c(F)cccc5F)=N4)cc3)cn2)CC1 (centres unmarked) [Example 195]	1.16
Fc1cccc(F)c1C1=NC(c2ccc(-c3cnc(OC4CCC4)nc3)cc2)CC1 (centres unmarked) [Example 197]	2.88
Fc1cccc(F)c1C1=NC(c2ccc(-c3cnc(OC4CCCCC4)nc3)cc2)CC1 (centres unmarked) [Example 198]	3.67
Fc1cccc(F)c1C1=NC(c2ccc(-c3cnc(OC4CCCC4)nc3)cc2)CC1 (centres unmarked) [Example 199]	3.21
Fc1cccc(F)c1C1=NC(c2ccc(-c3cnc(OCC4CC4)nc3)cc2)CC1 (centres unmarked) [Example 200]	2.74
CCNCc1ccc(-c2ccc(C3CCC(c4c(F)cccc4F)=N3)cc2)nc1 (centres unmarked) [Example 201]	0.9
Cc1ccc(-c2ccc(C3CCC(c4c(F)cccc4F)=N3)cc2)nc1 (centres unmarked) [Example 202]	1.24
Fc1cccc(F)c1C1=NC(c2ccc(-c3ccc(N4CCN(c5cccc(C(F)(F)F)c5)CC4)nc3)cc2)CC1 (centres unmarked) [Example 203]	3
Fc1cccc(F)c1C1=NC(c2ccc(-c3ccc(N4CCN(c5ncccn5)CC4)nc3)cc2)CC1 (centres unmarked) [Example 204]	1.5
Cc1cccc(C)c1N1CCN(c2ccc(-c3ccc(C4CCC(c5c(F)cccc5F)=N4)cc3)cn2)CC1 (centres unmarked) [Example 205]	3.76
COC(CN(C)c1ncc(-c2ccc(C3CCC(c4c(F)cccc4F)=N3)cc2)cn1)OC (centres unmarked) [Example 206]	2.32
CCOC(CN(C)c1ncc(-c2ccc(C3CCC(c4c(F)cccc4F)=N3)cc2)cn1)OCC (centres unmarked) [Example 207]	3.09
CN(Cc1ccc(Cl)nc1)c1ncc(-c2ccc(C3CCC(c4c(F)cccc4F)=N3)cc2)cn1 (centres unmarked) [Example 208]	2.89
CCN(Cc1ccc(Cl)nc1)c1ncc(-c2ccc(C3CCC(c4c(F)cccc4F)=N3)cc2)cn1 (centres unmarked) [Example 209]	3.6
O/N=C/c1ccc(-c2ccc(C3CCC(c4c(F)cccc4F)=N3)cc2)nc1 (centres unmarked) [Example 210]	1.58
CC(=O)c1ccc(-c2ccc(C3CCC(c4c(F)cccc4F)=N3)cc2)nc1 (centres unmarked) [Example 211]	2
CN(c1ncc(-c2ccc(C3CCC(c4c(F)cccc4F)=N3)cc2)cn1)C1CCCCC1 (centres unmarked) [Example 212]	4.11
CC(C#N)c1ccc(-c2ccc(C3CCC(c4c(F)cccc4F)=N3)cc2)nc1 (centres unmarked) [Example 213]	1.98
O=C1CCN(c2ncc(-c3ccc(C4CCC(c5c(F)cccc5F)=N4)cc3)cn2)CC1 (centres unmarked) [Example 214]	2
CON=C1CCN(c2ncc(-c3ccc(C4CCC(c5c(F)cccc5F)=N4)cc3)cn2)CC1 (centres unmarked) [Example 215]	2.65
CCON=C1CCN(c2ncc(-c3ccc(C4CCC(c5c(F)cccc5F)=N4)cc3)cn2)CC1 (centres unmarked) [Example 216]	3.1
CC(C)ON=C1CCN(c2ncc(-c3ccc(C4CCC(c5c(F)cccc5F)=N4)cc3)cn2)CC1 (centres unmarked) [Example 217]	3.83
Fc1cccc(F)c1C1=NC(c2ccc(-c3ncc(Cl)cn3)cc2)CC1 (centres unmarked) [Example 218]	2.87
Cc1nc(-c2ccc(C3CCC(c4c(F)cccc4F)=N3)cc2)nc(C)c1Cl (centres unmarked) [Example 219]	3.9
CCOC(=O)c1cncc(-c2ccc(C3CCC(c4c(F)cccc4F)=N3)cc2)c1 (centres unmarked) [Example 220]	2.42
O=Cc1ccc(-c2ccc(C3CCC(c4c(F)cccc4F)=N3)cc2)nc1 (centres unmarked) [Example 221]	1.95

Other lines, results leading:

chromatographic logP	SMILES
1.63	Brc1ccc(N2CCOCC2)nc1 [III-1, 4-(5-bromo-2-pyridinyl)morpholine]
3.48	FC(F)(F)COc1ccc(Br)cn1 [III-2, 5-bromo-2-(2,2,2-trifluoroethoxy)pyridine]
4.38	CCCN(CC)c1ncc(Br)cn1 [III-3, N-(5-bromo-2-pyrimidinyl)-N-ethyl-N-propylamine]
2.15	Brc1cnc(N2CCOCC2)nc1 [III-5, 4-(5-bromo-2-pyrimidinyl)morpholine]
2.86	CC(C)(C)C(=O)N1CCN(c2ncc(Br)cn2)CC1 [III-6, 1-(tert-butylcarbonyl)-4-(5-bromo-2-pyrimidinyl)piperazine]
2.39	CC(C)Oc1ncc(Br)cn1 [III-7, 5-bromo-2-pyrimidinyl isopropyl ether]
3.34	CC(C)Sc1ncc(Br)cn1 [III-8, 5-bromo-2-pyrimidinyl isopropyl sulphide]
0.51	CCN(CC)c1ccc(Cl)nn1 [III-10, N-(6-chloro-3-pyridazinyl)-N,N-diethylamine]
1.82	CCCN(CCC)c1ccc(Cl)nn1 [III-12, N-(6-chloro-3-pyridazinyl)-N,N-dipropylamine]
2.36	O=C(OCc1ccccc1)N1CCN(c2ccc(Cl)nn2)CC1 [III-13, benzyl 4-(6-chloro-3-pyridazinyl)-1-piperazinecarboxylate]
1.09	O=C1CCCN1c1ccc(Cl)nn1 [III-14, 1-(6-chloro-3-pyridazinyl)-2-pyrrolidinone]
0.95	Clc1ccc(NC2CCCCC2)nn1 [III-15, N-(6-chloro-3-pyridazinyl)-N-cyclohexylamine]
1.69	CN(C(=O)C(C)(C)C)c1ccc(Cl)nn1 [III-17, N-(6-chloro-3-pyridazinyl)-N-methyl-N-2,2-trimethylpropanamide]
1.94	CC(C)Oc1ccc(Cl)nn1 [III-18, 3-chloro-6-isopropoxypyridazine]
2.05	FC(F)(F)COc1ccc(Cl)nn1 [III-19, 3-chloro-6-(2,2,2-trifluoroethoxy)pyridazine]
2.34	CC(C)Sc1ccc(Cl)nn1 [III-20, 6-chloro-3-pyridazinyl isopropyl sulphide]
1.2	CC(C)S(=O)(=O)c1ccc(Cl)nn1 [III-21, 6-chloro-3-pyridazinyl isopropyl sulphone]
1.56	O=S(=O)(Nc1ccc(Cl)nn1)C(F)(F)F [III-22, N-(6-chloro-3-pyridazinyl)(trifluoro)methane-sulphonamide]
2.18	CN(c1ccc(Cl)nn1)S(=O)(=O)C(F)(F)F [III-23, N-(6-chloro-3-pyridazinyl)(trifluoro)-N-methyl-methanesulphonamide]
